Data on two compounds can be found in patent US7208528B1, “Polyamine analogues as therapeutic and diagnostic agents” (MediQuest Therapeutics, Inc., priority 1997, dated 2007).

The structures appear in SMILES notation.

Data set [1] deals with polyamine transport system of MDA cells. Kind of data set: SPD transport inhibition and recovery after washing in MDA cells. The settings on record: 3 day incubation. Format: cell-based, human.
The subject of data set [2] is MDA breast carcinoma cells. As to the kind of experiment: Rescue from DFMO-induced growth inhibition of MDA cells without added polyamines, six day growth assay. Format: cell-based, human. The settings on record: Homo sapiens, Breast carcinoma cell, 144 h; 230 μM, no additional polyamines, six day growth assay; read-out: cell number, % of control. As to the method: An additional series of spermine amides were evaluated to extend the structure-activity relationship around this polyamine transport target.
Growth assays were done over a six day period in order to allow for polyamine depletion within cells. When synthesis of polyamines is inhibited, cells compensate by increasing transport of extracellular polyamines into the cell. Over the time course of the assay, polyamines in the culture media may be depleted resulting in growth inhibition.

Data set [3] relates to MDA cells. Kind of data set: Long term (three week) growth of MDA cells with DFMO, 1202 or both. Format: cell-based, human. The settings on record: DFMO 500 μM or 1202 60 μM alone, three weeks.
The subject of data set [4] is MDA cells. Kind of data set: Intracellular polyamine levels in MDA cells after long term treatment. The settings on record: DFMO alone, one and three weeks. Format: cell-based, human. From the text: We examined the intracellular polyamine levels in MDA cells after 6 and 20 days of growth in the presence of polyamine synthesis inhibitor or transport inhibitor, or both.

Data set [5] relates to polyamine transport system of MDA cells. As to the kind of experiment: Transport Km and Vmax with 3H-SPD after long term treatment of MDA cells. In kind it is cell-based, human. Conditions: DFMO in the presence of SPD. The text has this:
We wished to determine the effects of long term treatment with DFMO, 1202, or both, on polyamine transport characteristics.

Data set [6] deals with mutant L1210 leukemia cells deficient in polyamine uptake. The settings on record: cited from earlier work.
Data set [7] deals with wild-type L1210 cancer cells. Conditions: cited from earlier work.
A further data set relates to MDA-MB-231 cells. As to the kind of experiment: Growth assay of MDA-MB-231 cells with ODC inhibitor (DFMO) and 1 μM spermidine. Conditions: alone, in the presence of 1 μM SPD.
The nature of the next data set: Solubility in water. In kind it is physicochemical. The settings on record: pH 7.0.
Where [8] appears, read: mice inoculated with mutant L1210 cells.

One may read the solubility as how much of the substance goes into solution per volume. Higher therefore signals a readily soluble substance.

Protocol for MDA-MB-231 cells: The estrogen insensitive human breast carcinoma MDA-MB-231 cell line as the primary cell line in the screen. […] In order to optimize the screen for polyamine transport inhibition, 1.0 μM spermidine was added to media to reverse the effects of ODC inhibitors. The assay was also performed over seven days because this allows for the greatest dynamic range in cell growth due to the mechanism of ODC inhibitors. Cells need to divide several times before the intracellular level of polyamines begin to decrease to growth inhibitory levels.
Compounds were tested for their ability to inhibit cell growth in the presence of 1 μM spermidine and 230 μM ODC inhibitor for the MDA-MB-231 cells or 1 mM ODC inhibitor for the PC3 cells.
In our six day growth assays, 1202 was tested at increasing concentrations with the optimal concentration of DFMO.

As to `NCCC[C@](N)(C(=O)O)C(F)F` [DFMO, α-difluoromethylornithine], in [1], the “up-regulation of SPD transport” value came out at 3 fold. Besides, the activity at 230 µM in data set [2] worked out at 35%. Moreover, in the data set on MDA cells [3], the “growth rate with single compound” value is “little difference in growth rate”. Moreover, the “decrease in PUT levels” value in the data set with MDA cells [4] is recorded as 69–86%. Also, the “change in Vmax” value in data set [5] is given as “no change”. Also, the survival in [6] (PAT-deficient L1210 cells, DFMO) is greater than 60 days. Besides, in data set [6] (setting [8]), the “increase in median survival time” value is given as 87% and the mice cured is 13 of 40. The “increase in median survival time” value in [7] (mice inoculated with the parental cell line) is 22%. Besides, in [7] (wild-type L1210, treated with DFMO), the time to death is recorded as 12 days. For the same compound, in the data set with MDA-MB-231 cells, the “effect on growth of single agent” value is on record as “minimal”.
`NCCCCC(N)C(=O)NCCCNCCCCNCCCN` [Compound 1202, N^1-Spermine-L-lysinyl amide]: in “Solubility in water”, the solubility was no less than 100 mM.
